ChEMBL document CHEMBL3593237, “Synthesis and biological evaluation of isoflavone amide derivatives with antihyperlipidemic and preadipocyte antiproliferative activities” (Bioorg Med Chem, 2015)
pIC50: −log10 of the molar value. Activity calls are given as the source filed them. No cut-off for these calls is given here.

Legend:
[1] = system: 3T3-L1; experiment: Inhibition of cell proliferation of mouse 3T3L1 cells at 100 uM incubated for 48 hrs by MTT assay; format: functional, cell-based
[2] = target: T1, Cholesteryl ester transfer protein (Oryctolagus cuniculus) (UniProt P22687); experiment: Inhibition of CETP in rabbit serum at 100 uM incubated for 1 hr using NBD-labeled cholesterol in HDL and LDL by fluorescence based assay
T1 sequence (whole entry): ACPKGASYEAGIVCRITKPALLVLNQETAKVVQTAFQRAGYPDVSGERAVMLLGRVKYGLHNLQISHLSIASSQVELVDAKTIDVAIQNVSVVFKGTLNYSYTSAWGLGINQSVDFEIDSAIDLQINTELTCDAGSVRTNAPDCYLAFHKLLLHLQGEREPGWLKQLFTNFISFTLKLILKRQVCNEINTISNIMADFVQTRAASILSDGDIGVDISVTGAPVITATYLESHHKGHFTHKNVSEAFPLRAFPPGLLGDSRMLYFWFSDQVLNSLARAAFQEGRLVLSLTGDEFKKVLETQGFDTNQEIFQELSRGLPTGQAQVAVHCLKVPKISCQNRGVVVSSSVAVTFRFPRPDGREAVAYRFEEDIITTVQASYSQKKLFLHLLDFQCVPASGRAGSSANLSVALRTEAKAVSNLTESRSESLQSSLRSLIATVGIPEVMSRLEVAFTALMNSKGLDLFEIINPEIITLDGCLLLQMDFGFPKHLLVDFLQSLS

[3] = target: T2, Cholesteryl ester transfer protein (Oryctolagus cuniculus, UniProt P22687); experiment: Inhibition of CETP in rabbit serum incubated for 1 hr using NBD-labeled cholesterol in HDL and LDL by fluorescence based assay
T2 sequence (P22687 whole entry): T1 sequence (whole entry)

[4] = system: HepG2; experiment: Toxicity against human HepG2 cells assessed as inhibition of cell proliferation at 100 uM incubated for 48 hrs by MTT assay; format: cell-based; conditions: hepg2, 48 h
[5] = system: Syrian golden hamster; experiment: Antihyperlipidemic activity in Syrian golden hamster model of high lipid diet-induced dyslipidemia model assessed as reduction in LDL-C at 50 mg/kg/day, po for 28 days; format: functional, Mesocricetus auratus; design: scale not given: the % may be the effect or the level left
[6] = system: Syrian golden hamster; experiment: Antihyperlipidemic activity in Syrian golden hamster model of high lipid diet-induced dyslipidemia model assessed as increase in HDL-C at 50 mg/kg/day, po for 28 days; format: functional, Mesocricetus auratus

Row | SMILES | inhibition [2] | pIC50 [3] | inhibition [1] | Activity [4] | Activity [5] | Activity [6]
1 | COc1ccccc1OCC(=O)Nc1ccc(-c2coc3cc(O)ccc3c2=O)cc1 | inactive |  | inactive |  |  | 
2 | CCCCCCCC/C=C\CCCCCCCC(=O)Oc1ccc2c(=O)c(-c3ccc(OC)cc3)coc2c1 |  |  | Active |  |  | 
3 | Cc1ccc(OCC(=O)Nc2ccc(-c3coc4cc(O)ccc4c3=O)cc2)cc1 | Active |  | inactive |  |  | 
4 | Cc1cccc(OCC(=O)Nc2ccc(-c3coc4cc(O)ccc4c3=O)cc2)c1 | Active |  | inactive |  |  | 
5 | CC(=O)Oc1ccc2c(=O)c(-c3ccc(NC(=O)COc4ccc(C)cc4)cc3)coc2c1 | inactive |  | Active |  |  | 
6 | COc1cc(F)c(C(C)C)cc1-c1ccc(C(F)(F)F)cc1CN1C(=O)O[C@H](c2cc(C(F)(F)F)cc(C(F)(F)F)c2)[C@@H]1C | Active |  |  |  |  | 
7 | O=C(COc1cccc2ccccc12)Nc1ccc(-c2coc3cc(O)ccc3c2=O)cc1 | Active |  | inactive |  |  | 
8 | O=C(COc1ccccc1)Nc1ccc(-c2coc3cc(O)ccc3c2=O)cc1 | Active |  | inactive |  |  | 

More lines, main results first:

Row | inhibition [2] | pIC50 [3] | SMILES | inhibition [1] | Activity [4] | Activity [5] | Activity [6]
9 | inactive |  | CC(=O)Oc1ccc2c(=O)c(-c3ccc(NC(=O)COc4cccc(C)c4)cc3)coc2c1 | Active |  |  | 
10 | Active |  | Cc1ccccc1OCC(=O)Nc1ccc(-c2coc3cc(O)ccc3c2=O)cc1 | inactive |  |  | 
11 | Active | 5.07 | CC(=O)Oc1ccc2c(=O)c(-c3ccc(NC(=O)COc4ccccc4C)cc3)coc2c1 | Active |  |  | 
12 | inactive |  | COc1ccccc1OCC(=O)Nc1ccc(-c2coc3cc(OC(C)=O)ccc3c2=O)cc1 | Active |  |  | 
13 | Active |  | CC(=O)Oc1ccc2c(=O)c(-c3ccc(NC(=O)COc4cccc5ccccc45)cc3)coc2c1 | Active |  |  | 
14 | Active | 5.82 | CC(=O)Oc1ccc2c(=O)c(-c3ccc(NC(=O)COc4ccccc4)cc3)coc2c1 | Active | Non-toxic | 44.6% | 66%
